Assay results: patent publication US7652029B2, “Therapeutic compound and treatments” (priority 2004, dated 2010)

How the values were obtained:
OVCAR-3 = assay: NCI multiple cell line test (SRB); type: cell-based, human; conditions: OVCAR-3 (Ovarian Cancer), 48 h
NCI-H522 = assay: NCI multiple cell line test (SRB); type: cell-based, human; conditions: NCI-H522 (Non-Small Cell Lung Cancer), 48 h
786-0 = assay: NCI multiple cell line test (SRB); type: cell-based, human; conditions: 786-0 (Renal Cancer), 48 h
OVCAR-8 = assay: NCI multiple cell line test (SRB); type: cell-based, human; conditions: OVCAR-8 (Ovarian Cancer), 48 h
HL-60 (TB) = assay: NCI multiple cell line test (SRB); type: cell-based, human; conditions: HL-60 (TB) (Leukemia), 48 h
Experimental: (§1) The NCI tested MT477 60 cell line test, and reported the GI50, TGI, and LC50 values of MT477 for each cell line, reported herein at Table 3.
(§2) Methodology: The NCI conducted a test of the MT477 drug against about 60 human cell lines, with a minimum of five concentrations of MT477 at 10-fold dilutions, with no more than 5(10)^−5 molar of drug being used. A 48 hour continuous drug exposure was used, and a sulforhodamine B (SRB) protein assay was used to estimate cell viability and growth. The human tumor cell lines of the cancer screening panel were grown in RPMI 1640 medium containing 5% fetal bovine serum and 2 mM L-glutamine. Cells were inoculated into 96 well microtiter plates in 100 μL at plating densities ranging from 5,000 to 40,000 cells/well depending on the doubling time of individual cell lines. After cell inoculation, the microtiter plates are incubated at 37° C., 5% CO2, 95% air, and 100% relative humidity for 24 h prior to addition of experimental drugs.
(§3) After 24 h, two plates of each cell line were fixed in situ with TCA, to represent a measurement of the cell population for each cell line at the time of drug addition (Tz). MT477 was solubilized in dimethyl sulfoxide at 400-fold the desired final maximum test concentration and stored frozen prior to use. At the time of drug addition, an aliquot of frozen concentrate was thawed and diluted to twice the desired final maximum test concentration with complete medium containing 50 μg/ml gentamicin. Additional four, 10-fold or ½ log serial dilutions were made to provide a total of five drug concentrations plus control. Aliquots of 100 μl of these different drug dilutions were added to the appropriate microtiter wells already containing 100 μl of medium, resulting in the required final drug concentrations.
(§4) Following drug addition, the plates were incubated for an additional 48 h at 37° C., 5% CO2, 95% air, and 100% relative humidity. For adherent cells, the assay was terminated by the addition of cold TCA. Cells were fixed in situ by the gentle addition of 50 μl of cold 50% (w/v) TCA (final concentration, 10% TCA) and incubated for 60 minutes at 4° C. The supernatant was discarded, and the plates were washed five times with tap water and air dried. Sulforhodamine B (SRB) solution (100 μl) at 0.4% (w/v) in 1% acetic acid was added to each well, and plates were incubated for 10 minutes at room temperature. After staining, unbound dye was removed by washing five times with 1% acetic acid and the plates were air-dried. Bound stain was subsequently solubilized with 10 mM trizma base, and the absorbance was read on an automated plate reader at a wavelength of 515 nm. For suspension cells, the methodology was the same except that the assay was terminated by fixing settled cells at the bottom of the wells by gently adding 50 μl of 80% TCA (final concentration, 16% TCA). Using the seven absorbance measurements (time zero, (Tz), control growth, (C), and test growth in the presence of drug at the five concentration levels (Ti)), the percentage growth was calculated at each of the drug concentrations levels. Percentage growth inhibition was calculated as: [(Ti−Tz)/(C−Tz)]×100 for concentrations for which Ti>/=Tz [(Ti−Tz)/Tz]×100 for concentrations for which Ti<Tz.
(§5) Three dose response parameters were calculated for each experimental agent. Growth inhibition of 50% (GI50) was calculated from [(Ti−Tz)/(C−Tz)]×100=50, which is the drug concentration resulting in a 50% reduction in the net protein increase (as measured by SRB staining) in control cells during the drug incubation. The drug concentration resulting in total growth inhibition (TGI) was calculated from Ti=Tz. The LC50 (concentration of drug resulting in a 50% reduction in the measured protein at the end of the drug treatment as compared to that at the beginning) indicating a net loss of cells following treatment was calculated from [(Ti−Tz)/Tz]×100=−50. […]

NCI-H322M = assay: NCI multiple cell line test (SRB); type: cell-based, human; conditions: NCI-H322M (Non-Small Cell Lung Cancer), 48 h
Experimental: as §1, §2, §3, §4, §5

M14 = assay: NCI multiple cell line test (SRB); type: cell-based, human; conditions: M14 (Melanoma), 48 h
Experimental: as §1, §2, §3, §4, §5

SF-268 = assay: NCI multiple cell line test (SRB); type: cell-based, human
CAKI-1 = assay: NCI multiple cell line test (SRB); type: cell-based, human; conditions: CAKI-1 (Renal Cancer), 48 h
A549 cells = assay: Growth response, MTT dye conversion assay; type: cell-based, human; conditions: low doses (FIG. 13 as printed)
Lewis murine lung cells = assay: Growth response, MTT dye conversion assay; type: cell-based; conditions: FIG. 9; mouse lung cell line
[1] = Homo sapiens, read-out: −log10GI50 (converted)

COC(=O)C1=C(C(=O)OC)SC2(S1)C(C(=O)OC)=C(C(=O)OC)SC1=C2c2cccc(OC)c2N(C(=O)CN2C(=O)CCC2=O)C1(C)C [MT477]
IC50 (OVCAR-3; [1]): 0.813 µM | −log10LC50 (OVCAR-3): 5.39 molar | −log10TGI (OVCAR-3): 5.74 molar | IC50 (NCI-H522; [1]): 9.33 µM | −log10LC50 (NCI-H522): * (effect not reached at maximum dose of 0.05 millimolar) | −log10TGI (NCI-H522): 4.31 molar | −log10LC50 (786-0): 5.47 molar | −log10TGI (786-0): 5.76 molar | IC50 (786-0; [1]): 0.871 µM | IC50 (OVCAR-8; [1]): 6.92 µM | −log10LC50 (OVCAR-8): 4.37 molar | −log10TGI (OVCAR-8): 4.77 molar | −log10LC50 (HL-60 (TB)): * (effect not reached at maximum dose of 0.05 millimolar) | −log10TGI (HL-60 (TB)): 4.83 molar | IC50 (HL-60 (TB); [1]): 2.19 µM | IC50 (NCI-H322M; [1]): 6.46 µM | −log10TGI (NCI-H322M): 4.87 molar | −log10GI50 (M14): 602 molar | GI50 (SF-268; Homo sapiens, SF-268, NCI-SF268, MT477 ACTUAL): 2.51 µM | IC50 (SF-268; Homo sapiens, SF-268 (CNS Cancer), 48 h, read-out: −log10GI50 (converted)): 2.14 µM | Activity against CNS cancer NCI-SF268 (SF-268; MT477 ACTUAL): Yes | −log10LC50 (SF-268; SF-268 (CNS Cancer), 48 h): * (effect not reached at maximum dose of 0.05 millimolar) | −log10TGI (SF-268; SF-268 (CNS Cancer), 48 h): 4.97 molar | −log10LC50 (CAKI-1): 4.48 molar | −log10TGI (CAKI-1): 4.83 molar | IC50 (CAKI-1; [1]): 6.61 µM | growth response at low concentrations (A549 cells): effective even at very low doses, including micromolar dosages | growth response (Lewis murine lung cells): effective in human and mouse cell lung lines
